Test results: US20160137639A1, “TRIAZOLE-ISOXAZOLE COMPOUND AND MEDICAL USE THEREOF” (JAPAN TOBACCO INC., priority 2012, published 2016)
pEC50: −log10 of the molar value. Read-outs that look alike come from different tables or passages of the source.

Key:
[1] = molecular target: T1, mouse RORγ (Mus musculus, UniProt P51450); experiment: Luciferase reporter gene assay of inhibitory effect against RORγ transcriptional activity (GAL4-mRORγ plasmid in CHO cells); assay type: cell-based; details: for pEC50: read-out: LUC EC50 mRORg; for EC50: read-out: LUC EC50 (μM) mRORg
T1 construct: mouse, NM_011281.2 and from Ile251 to Lys516; expressed in transfected cells; host or cells: CHO cells (transient co-transfection with pG5-Luc reporter)
T1 sequence (P51450 251-516): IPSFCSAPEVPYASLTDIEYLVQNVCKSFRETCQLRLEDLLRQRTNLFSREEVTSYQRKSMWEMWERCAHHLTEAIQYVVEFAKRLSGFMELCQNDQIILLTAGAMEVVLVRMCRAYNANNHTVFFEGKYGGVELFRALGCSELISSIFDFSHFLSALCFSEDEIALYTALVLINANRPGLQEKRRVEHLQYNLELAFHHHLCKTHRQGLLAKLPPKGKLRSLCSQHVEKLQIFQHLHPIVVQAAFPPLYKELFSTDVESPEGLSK
Experimental: (§1) In vitro assay of inhibitory effect against RORγ transcriptional activity
(§2) Inhibitory effect of test article on transcriptional activity of RORγ was measured by means of the following luciferase reporter gene assay.
(§3) A cDNA encoding human and mouse RORγ ligand binding domain (LBD) were obtained based on the reported sequences (Genebank accession number and sequence: human, NM_005060.3 and from Ser253 to Lys518; mouse, NM_011281.2 and from Ile251 to Lys516).
(§4) The cDNA of human RORγ or mouse RORγ was inserted into pFA-CMV vector (Strategene), which expresses GAL4-DNA binding domain fusion protein.
(§5) The resulting plasmids are hereinafter referred to as GAL4-hRORγ plasmid and GAL4-mRORγ plasmid, respectively.
(§6) Human or mouse GAL4-RORγ plasmid was transiently co-transfected into Chinese hamster ovary cells (CHO cells) with […] plasmid, a reporter plasmid expressing firefly luciferase depending on GAL4.
(§7) TransIT CHO transfection reagent (Mirus) was used to co-transfect human or mouse GAL4-RORγ plasmid into CHO cells with pG5-Luc plasmid.
(§8) One day before the assay, CHO cells were suspended in HAM F-12 Nutrient medium containing 10 v/v % fetal bovine serum and seeded at 6×10^6 cells per 175 cm^2 cell culture flask.
(§9) Fifty four micro litters of Transit-CHO reagent was added into a 15 ml tube containing 1.16 ml of HAM F-12 Nutrient medium without fetal bovine serum and incubated at room temperature for 10 min.
(§10) The mixture was incubated at room temperature for 10 min.
(§11) Nine micro litters of CHO Mojo Reagent was then added into each tube and mixed gently. The mixture was incubated at room temperature for 10 min.
(§12) The resultant transfection reagent was applied to the cell culture.
(§13) After incubation at 37° C., 5% CO2 for 4 hr, the transfected CHO cells were harvested by a trypsin treatment.
(§14) The collected cells were resuspended in HAM F-12 Nutrient medium supplemented with 10 v/v % fetal bovine serum and plated into a 384-well-white plate at 8,000 cells/50 uL/well.
(§15) The plate was incubated at room temperature for 1 hour and then further incubated at 37° C., 5% CO2 for 3 hours.
(§16) The test articles were dissolved in dimethylsulfoxide (DMSO) to obtain a concentration of 10 mmol/L. The resulting solution was diluted with the medium just before use and added to the cells in the plate to prepare 8 different concentrations of the test article.
(§17) The final concentration of DMSO was 0.1 v/v % After the addition of the test articles, the cells were incubated at 37° C., 5% CO2 for 2 days.
(§18) RORγ transcriptional activity was detected as the intracellular luciferase activity using SteadyLite HTS Reporter Gene Assay System (Perkin Elmer).
(§19) StedyLite Reagent was diluted five-fold into a solution containing 10 mM Tricine, 0.2% w/v BSA, 0.02% v/v Tween-20 to obtain the luciferase substrate solution.
(§20) After the measurement of the cell viability using Resazurin, the culture media in the 384 well-plate were removed. Then the Luc substrate solution was added into each well.
(§21) After the incubation at room temperature for 10 minutes, luminescence of each well was measured by a microplate reader.
(§22) The luciferase activity derived from the luminescence count in the vehicle-control well treated with 0.1% DMSO alone was defined as 100%, and the luciferase activity in the test article was calculated as a percentage (%-of-control) based on the value of the vehicle-control.
(§23) EC50 value of test article was calculated by curve fitting with GraphPad Prism.
(§24) The luminescence counts at the concentration of the test article where the cytotoxicity was observed were excluded from the data analysis.

[2] = molecular target: T2, human RORγ (Homo sapiens, UniProt P51449); experiment: Luciferase reporter gene assay of inhibitory effect against RORγ transcriptional activity (GAL4-hRORγ plasmid in CHO cells); assay type: cell-based; details: for pEC50: read-out: LUC EC50 hRORg; for EC50: read-out: LUC EC50 (μM) hRORg
T2 construct: human, NM_005060.3 and from Ser253 to Lys518; expressed in transfected cells; host or cells: CHO cells (transient co-transfection with pG5-Luc reporter)
T2 sequence (P51449 253-518): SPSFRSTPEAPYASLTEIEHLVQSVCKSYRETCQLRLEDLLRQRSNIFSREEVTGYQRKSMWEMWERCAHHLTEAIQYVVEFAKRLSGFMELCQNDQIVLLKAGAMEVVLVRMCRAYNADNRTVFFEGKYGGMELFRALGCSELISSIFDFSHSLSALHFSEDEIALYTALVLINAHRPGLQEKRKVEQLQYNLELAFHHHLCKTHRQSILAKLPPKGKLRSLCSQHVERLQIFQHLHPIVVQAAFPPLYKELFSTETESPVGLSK
Experimental: as §1, §2, §3, §4, §5, §6, §7, §8, §9
A total 36 uL plasmid solution containing the GAL4-hRORγ plasmid (400 ng), pG5-Luc plasmid (9000 ng) and pcDNA3 plasmid (8600 ng) were added into the tube and mixed gently.
as §10, §11, §12, §13, §14, §15, §16, §17, §18, §19, §20, §21, §22, §23, §24

SMILES | pEC50 [1] | pEC50 [2] | EC50 [1] | EC50 [2]
Cc1ccc(NC(=O)C[C@@H](c2nnc([C@H]3C[C@@H](CC(C)C)C3)n2C2CC2)[C@H]2C[C@@H](O)C2)c(C)c1 [Example F-515] | > 5.52 | – | – | –
COc1cc(NC(=O)C[C@H](CCO)c2nnc([C@H]3C[C@@H](CC(C)C)C3)n2C2CC2)ccc1Cl [Example F-520] | > 5.52 | > 5.52 | – | –
Cc1ccc(NC(=O)C(C)C(CCOCc2ccccc2)c2nnc([C@H]3C[C@@H](CC(C)C)C3)n2C2CC2)c(C)c1 (some centres unmarked) [Example F-489] | – | – | < 3 µM | > 3 µM
Cc1ccc(NC(=O)CC(CCO)c2nnc(CCCC(C)(C)C)n2C2CC2)c(C)c1 (racemic) [Example F-307] | – | – | < 3 µM | < 3 µM
Cc1ccc(NC(=O)CCc2nnc(CCCC(C)(C)C)n2C2CC2)c(C)c1 [Example F-305] | – | – | < 3 µM | < 3 µM
Cc1ccc(NC(=O)C[C@@H](CCO)c2nnc(CCCC(C)C)n2C2CC2)c(C)c1 [Example F-313] | – | – | > 3 µM | > 3 µM
Cc1ccc(NC(=O)C[C@H](CCC(=O)O)c2noc(-c3cc(CCC(C)(C)C)on3)c2C2CC2)c(C)c1 [Example E-32] | – | – | < 3 µM | < 3 µM
Cc1ccc(NC(=O)C[C@H](CCc2noc(=O)[nH]2)c2noc([C@H]3C[C@@H](CC(C)C)C3)c2C2CC2)c(C)c1 [Example F-643] | > 5.52 | > 5.52 | – | –
Cc1ccc(NC(=O)CCc2noc([C@H]3C[C@@H](CC(C)C)C3)c2C2CC2)c(C)c1 [Example F-665] | > 5.52 | > 5.52 | – | –
Cc1ccccc1CNC(=O)CCc1nnc(CCC(C)C)n1C1CC1 [Example F-59] | – | – | > 3 µM | > 3 µM
Cc1ccc(Cl)cc1NC(=O)CCc1nnc(CCC(C)C)n1C1CC1 [Example F-131] | – | – | > 3 µM | > 3 µM
Cc1ccc(NC(=O)CC(c2nnc([C@H]3C[C@@H](CC(C)C)C3)n2C2CC2)C(F)(F)CO)c(C)c1 (mixture of isomers) [Example F-617] | > 5.52 | > 5.52 | – | –
CC(C)C[C@H]1C[C@@H](c2nnc([C@@H](CCO)CC(=O)Nc3ccc(F)cc3Cl)n2C2CC2)C1 [Example F-513] | > 5.52 | > 5.52 | – | –
COCCC(CC(=O)Nc1ccc(C)cc1C)c1nnc(CCC2CCCCC2)n1C1CC1 (racemic) [Example F-396] | – | – | < 3 µM | < 3 µM
Cc1ccc(NC(=O)CC(c2nnc([C@H]3C[C@@H](CC(C)C)C3)n2C2CC2)C2CN(C(=O)OCc3ccccc3)C2)c(C)c1 (mixture of isomers) [Example F-459] | – | – | < 3 µM | < 3 µM
Cc1ccc(NC(=O)C[C@H](CCC(=O)O)c2noc(-c3cc(C(F)(F)C(C)(C)C)on3)c2C2CC2)c(F)c1 [Example E-46] | – | – | < 3 µM | < 3 µM
CC(=O)N1C[C@H](C(=O)Nc2ccc(C)cc2C)[C@@H](c2nnc(CC3CC(C)(C)C3)n2C2CC2)C1 (racemic) [Example F-347] | – | – | < 3 µM | < 3 µM

SMILES | pEC50 [1] | pEC50 [2] | EC50 [1] | EC50 [2]
Cc1ccc(NC(=O)C(C)C(CCO)c2nnc([C@H]3C[C@@H](CC(C)C)C3)n2C2CC2)c(C)c1 (single isomer, unassigned) [Example F-493] | – | – | < 3 µM | < 3 µM
Cc1ccc(NC(=O)C[C@H](CCC(=O)O)c2noc([C@H]3C[C@@H](CC(C)(C)C)C3)c2C2CC2)c(C)n1 [Example F-673] | > 5.52 | > 5.52 | – | –
COCC(C)(C)C[C@H]1C[C@@H](c2onc([C@@H](CCC(=O)O)CC(=O)Nc3ccc(C)cc3Cl)c2C2CC2)C1 [Example F-725] | > 5.52 | > 5.52 | – | –
COCC(C)(C)C[C@H]1C[C@@H](c2onc([C@@H](CCC(=O)O)CC(=O)Nc3ccc(CO)cc3Cl)c2C2CC2)C1 [Example F-724] | > 5.52 | > 5.52 | – | –
CC(=O)N1C[C@H](C(=O)Nc2cccc(C)c2C)[C@@H](c2nnc(CCCC(C)(C)C)n2C2CC2)C1 (racemic) [Example F-324] | – | – | < 3 µM | < 3 µM
Cc1ccc(NC(=O)CC(CC(=O)O)c2nnc(CCCC(C)C)n2C2CC2)c(C)c1 (racemic) [Example F-252] | – | – | > 3 µM | > 3 µM
CC(=O)N1C[C@H](C(=O)Nc2ccc(C)cc2C)[C@@H](c2nnc(CCC3CCCCC3)n2C2CC2)C1 [Example F-374] | – | – | < 3 µM | < 3 µM
Cc1c(Cl)cccc1NC(=O)CC(CCO)c1nnc(CCC2CCCCC2)n1C1CC1 (racemic) [Example F-247] | – | – | < 3 µM | < 3 µM
Cc1ccc(NC(=O)CC(CC(=O)N2CC[C@H](O)C2)c2nnc([C@H]3C[C@@H](CC(C)C)C3)n2C2CC2)c(C)c1 (mixture of isomers) [Example F-503] | < 5.52 | < 5.52 | – | –
CC(=O)N1C[C@@H](C(=O)Nc2ccc(C)cc2C)[C@H](c2nnc(C3CC4(CCCCC4)C3)n2C2CC2)C1 [Example F-474] | – | – | < 3 µM | > 3 µM
Cc1ccc(NC(=O)C[C@H](c2nnc([C@H]3C[C@@H](CC(C)C)C3)n2C2CC2)[C@H]2C[C@@H](O)C2)c(C)c1 [Example F-514] | < 5.52 | – | – | –
CCn1c(CCC2CCCCC2)nnc1[C@H]1C[C@@H]1C(=O)Nc1cccc2ccccc12 (racemic) [Example F-37] | – | – | < 3 µM | –
Cc1ccc(NC(=O)C[C@H](c2nnc([C@H]3C[C@@H](CC(C)C)C3)n2C2CC2)[C@H]2C[C@H](O)C2)c(C)c1 [Example F-522] | < 5.52 | – | – | –
CC(=O)N1C[C@H](C(=O)Nc2ccc(C)cc2C)[C@@H](c2nnc(CCCC(C)(C)C)n2C2CC2)C1 [Example F-432] | – | – | – | < 3 µM
Cc1ccc(NC(=O)[C@H](CC(=O)O)Cc2noc([C@H]3C[C@@H](CC(C)(C)C)C3)c2C2CC2)c(Cl)c1 [Example F-678] | – | > 5.52 | – | –
Cc1ccc(NC(=O)C[C@@H](c2nnc([C@H]3C[C@@H](CC(C)C)C3)n2C2CC2)[C@H]2C[C@H](O)C2)c(C)c1 [Example F-523] | > 5.52 | – | – | –
